The source of these data is patent US7605166B2, “Methods and compositions for treating rheumatoid arthritis” (Elan Pharmaceuticals Inc., priority 2003, dated 2009).

The subject of one series is AIA Rats. In words: Adjuvant-induced arthritis (AIA) in Lewis rats: paw swelling, erythema, histology. Type of series: in vivo, rat.
Another series relates to rat CIA model. In words: Rat CIA model: paw swelling, erythema, histology. Type of series: in vivo. As to conditions: rat CIA, 30, 10, 3 mg/kg b.i.d.; FIG. 6. How it is done:
Anti alpha-4 antibodies, and the compounds of Formulae W and Y were tested in the rat CIA model according to the methods shown in Table 14 below.
(§1) The results in FIG. 6 show the results for compounds. There were 8 rats per group in the efficacy study. Paw swelling and erythema were measured daily and the tarsal paws collected for histological analysis at the end of the study. Plasma which was heparinized was collected at 12 hours (i.e., the trough level) and at 4 horus after the last dose for compound measurement (FIG. 6).

The subject of series [1] is murine collagen-induced arthritis (CIA) model. Nature of the series: Murine collagen-induced arthritis (CIA) model: clinical scores. Type of series: in vivo, mouse. As to conditions: therapeutic CIA model, DBA/1LacJ mice, 100 mg/kg b.i.d. The procedure: A murine collagen-induced arthritis (CIA) model was used to examine the pharmacological effect of anti-alpha4-integrin antibodies prophylactically, semi-therapeutically and therapeutically. Dosing of the antibody was begun on day 20 for the prophylactic animals. […] The results seen with the treatment of the CIA mice is seen in FIG. 1.
Peripheral blood leucocytes (PBLs) from mice treated with anti-alpha4, anti-α4β7 and anti-VCAM 1 antibodies were collected at 4, 12 and 24 hours after antibody dosing. Cells were stained with goat anti-rat antibodies to confirm antibodies in circulation.
The effect of the compound of Formula P was evaluated in a therapeutica CIA model. […] 100 DBA/1LacJ male mice, ages 6-8 weeks were obtained from Jackson Laboratories. The mice were immunized at Day 0 as follows: 100 μg bovine type II collagen (Chondrex) in Complete Freund's adjuvant (CFA, Sigma) were injected into the mice. At Day 21, another 100 μg bovine type II collagen (Chondrex) in Incomplete Freund's Adjuvant (IFA, Sigma) was injected into the mice. Treatment with the compound began when the animals had the disease (i.e., 100% therapeutic).
The mice are scored daily after the boost. […] Treatment continued for 3 weeks of dosing. Dosing was every other day for the antibody group and control group. […]

Series [2] is described as follows: Plasma compound levels in AIA rats (4 and 12 hours). Type of series: in vivo, rat. The following applies: 12 hours after dosing, all concentrations tested (30, 10, 3 mg/kg).
Series [3] can be described thus: Blood levels of compound in CIA rats (12 hours trough). It counts as in vivo, rat. As to conditions: at 12 hours, all concentrations tested. How it is done: as §1

Structures are written as SMILES.

For `CC(C)OC(=O)[C@H](Cc1ccc(OC(=O)N2CCN(C)CC2)cc1)NC(=O)[C@H]1N(S(=O)(=O)c2cccnc2)CSC1(C)C` [Formula N, N-[N-(3-pyridinesulfonyl)-L-3,3-dimethyl-4-thiaprolyl]-O-[1-methylpiperazin-4-ylcarbonyl]-L-tyrosine isopropyl ester], in the series on AIA Rats (AIA model, 30 mg/kg b.i.d.), the “clinical and histological scores” value was “ameliorate clinical and histological scores”. Besides, the disease severity result is given as “no effect on disease severity” in the series on AIA Rats (Example F, 3 mg/kg s.c. b.i.d.) and “neither the compound of Formula N nor Y had any impact on disease severity” in the series on rat CIA model.

As to `CCN(CC)c1ncc(N(CC)S(=O)(=O)c2ccc(Cl)cc2)c(NC(Cc2ccc(OC(=O)N3CCCC3)cc2)C(=O)O)n1` (stereo not shown) [Formula P], the disease progression entry in series [1] is on record as “no effect on disease progression”. Further, the “levels of the compound relative to receptor saturation” value in series [2] is “above receptor saturation”. Also, the disease result with AIA Rats (Example F, all concentrations tested (30, 10, 3 mg/kg p.o. b.i.d.), FIG. 5) was “ameliorate disease”. In series [3], the “blood levels of the compound relative to receptor saturation” value is recorded as “above receptor saturation”.
